In ChEMBL document CHEMBL1141515, “2-(1H-Imidazol-4-yl)ethanamine and 2-(1H-pyrazol-1-yl)ethanamine side chain variants of the IGF-1R inhibitor BMS-536924” (Bioorg Med Chem Lett, 2008):

How the values were obtained:
Mus musculus = assay: AUC (0 to 4h) in mouse at 20 mg/kg, po; assay type: ADME, organism-based, Plasma; parameters: time < 4 hr, dose 20 mg/kg, route oral; settings: in vivo
[1] = biological target: T1, Insulin-like growth factor 1 receptor (Homo sapiens, UniProt P08069); assay: Inhibition of IGF1R
T1 sequence (P08069 31-736 limits assumed): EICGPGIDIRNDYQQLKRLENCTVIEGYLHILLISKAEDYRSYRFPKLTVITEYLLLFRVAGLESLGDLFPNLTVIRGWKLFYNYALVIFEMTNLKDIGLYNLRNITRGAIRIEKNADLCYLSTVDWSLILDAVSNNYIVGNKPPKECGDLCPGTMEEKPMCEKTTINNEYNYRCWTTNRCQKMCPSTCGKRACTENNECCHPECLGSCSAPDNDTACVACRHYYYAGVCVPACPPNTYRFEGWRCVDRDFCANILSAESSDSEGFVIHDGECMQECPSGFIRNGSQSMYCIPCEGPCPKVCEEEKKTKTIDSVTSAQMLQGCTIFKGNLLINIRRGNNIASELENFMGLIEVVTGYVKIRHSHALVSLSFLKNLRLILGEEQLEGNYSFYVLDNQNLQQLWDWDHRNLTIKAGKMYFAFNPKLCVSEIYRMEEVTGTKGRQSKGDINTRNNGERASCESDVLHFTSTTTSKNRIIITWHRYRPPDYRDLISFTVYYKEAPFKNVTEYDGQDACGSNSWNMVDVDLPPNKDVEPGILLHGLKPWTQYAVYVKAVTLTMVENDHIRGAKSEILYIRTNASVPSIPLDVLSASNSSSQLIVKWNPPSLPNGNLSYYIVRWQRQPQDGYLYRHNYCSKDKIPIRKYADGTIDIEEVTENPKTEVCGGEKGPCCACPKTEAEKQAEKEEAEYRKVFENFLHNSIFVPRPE
T1 sequence (P08069 741-1367 limits assumed): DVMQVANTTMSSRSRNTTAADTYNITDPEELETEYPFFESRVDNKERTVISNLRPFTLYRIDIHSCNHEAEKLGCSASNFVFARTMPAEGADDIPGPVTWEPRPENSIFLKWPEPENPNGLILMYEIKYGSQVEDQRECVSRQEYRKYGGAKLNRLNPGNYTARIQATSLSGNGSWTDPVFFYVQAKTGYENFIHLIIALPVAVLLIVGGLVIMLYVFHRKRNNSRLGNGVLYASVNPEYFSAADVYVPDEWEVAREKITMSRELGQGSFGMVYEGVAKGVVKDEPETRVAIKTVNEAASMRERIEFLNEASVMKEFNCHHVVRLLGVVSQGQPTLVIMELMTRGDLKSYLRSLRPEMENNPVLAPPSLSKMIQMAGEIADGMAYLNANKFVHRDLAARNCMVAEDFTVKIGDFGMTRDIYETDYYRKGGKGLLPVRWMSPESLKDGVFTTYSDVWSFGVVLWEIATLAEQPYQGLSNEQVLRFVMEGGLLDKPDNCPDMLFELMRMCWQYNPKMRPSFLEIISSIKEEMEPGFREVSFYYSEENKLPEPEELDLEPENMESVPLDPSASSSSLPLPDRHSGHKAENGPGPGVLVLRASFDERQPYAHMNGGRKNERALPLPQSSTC

[2] = biological target: T1, Insulin-like growth factor 1 receptor; assay: Inhibition of IGF1R expressed in SAL cells; assay type: cell-based
Serum = assay: Protein binding in human serum; assay type: ADME, cell-free
[3] = Protein binding in mouse serum; assay type: ADME, cell-free; settings: read-out: PB

Cc1cc(N2CCOCC2)cc2[nH]c(-c3c(NCCc4cn(C)cn4)cc[nH]c3=O)nc12
AUC (Mus musculus): 3.8 µM·h

Cc1cnn(CCNc2cc[nH]c(=O)c2-c2nc3c(C)cc(N4CCOCC4)cc3[nH]2)c1
AUC (Mus musculus): 2.7 µM·h

COC(=O)c1cnn(CCNc2cc[nH]c(=O)c2-c2nc3c(C)cc(N4CCOCC4)cc3[nH]2)c1
AUC (Mus musculus): 14.1 µM·h

CCOC(=O)c1cnn(CCNc2cc[nH]c(=O)c2-c2nc3c(C)cc(N4CCOCC4)cc3[nH]2)c1
AUC (Mus musculus): 4.9 µM·h

CCn1cnc(CCNc2cc[nH]c(=O)c2-c2nc3c(C)cc(N4CCOCC4)cc3[nH]2)c1Cl
AUC (Mus musculus): 50.9 µM·h

Cc1nn(CCNc2cc[nH]c(=O)c2-c2nc3c(C)cc(N4CCOCC4)cc3[nH]2)cc1Cl
AUC (Mus musculus): 57.8 µM·h

Cc1cc(N2CCOCC2)cc2[nH]c(-c3c(NCCn4ncc(Br)c4C)cc[nH]c3=O)nc12
AUC (Mus musculus): 33 µM·h

Cc1cc(N2CCOCC2)cc2[nH]c(-c3c(NCCn4cc(Br)c(CO)n4)cc[nH]c3=O)nc12
AUC (Mus musculus): 2 µM·h

Cc1ccn(CCNc2cc[nH]c(=O)c2-c2nc3c(C)cc(N4CCOCC4)cc3[nH]2)n1
IC50 [1]: 290 nM
IC50 [2]: 422 nM
AUC (Mus musculus): 1.2 µM·h

CCn1cnc(CCNc2cc[nH]c(=O)c2-c2nc3c(C)cc(N4CCOCC4)cc3[nH]2)c1Br
IC50 [1]: 172 nM
IC50 [2]: 284 nM

Cc1cc(N2CCOCC2)cc2[nH]c(-c3c(NCCn4cc(Cl)cn4)cc[nH]c3=O)nc12
AUC (Mus musculus): 90.3 µM·h

Cc1cc(N2CCOCC2)cc2[nH]c(-c3c(NCCn4nccc4C)cc[nH]c3=O)nc12
IC50 [1]: 270 nM
IC50 [2]: 542 nM
AUC (Mus musculus): 5.2 µM·h

Cc1cc(N2CCOCC2)cc2[nH]c(-c3c(NCCn4cccn4)cc[nH]c3=O)nc12
AUC (Mus musculus): 1.6 µM·h

Cc1cc(N2CCOCC2)cc2[nH]c(-c3c(NCCc4ncn(C)c4Cl)cc[nH]c3=O)nc12
AUC (Mus musculus): 8.2 µM·h

Cc1cc(N2CCOCC2)cc2[nH]c(-c3c(NCCc4nc(C)n(C)c4Cl)cc[nH]c3=O)nc12
AUC (Mus musculus): 36 µM·h

Cc1cc(N2CCOCC2)cc2[nH]c(-c3c(NC[C@@H](O)c4cccc(Cl)c4)cc[nH]c3=O)nc12
PB (Serum): 99.6%
fraction unbound [3]: < 0.001
AUC (Mus musculus): 50.9 µM·h

Cc1cc(N2CCOCC2)cc2[nH]c(-c3c(NCCc4nc(Cl)n(C)c4Cl)cc[nH]c3=O)nc12
AUC (Mus musculus): 32.2 µM·h

Cc1nn(CCNc2cc[nH]c(=O)c2-c2nc3c(C)cc(N4CCOCC4)cc3[nH]2)cc1Br
AUC (Mus musculus): 132 µM·h
